Columns and labels:
[1] = 40° C. for few hours; literature data; cited from earlier work
[2] = Solid-state change of Tiotropium Bromide monohydrate on heating, by DRX; assay type: physicochemical; settings: 40° C. at 50% UR for 72 hours, FIGS. 4 and 4A
Experimental: FIGS. 4 and 4A show the DRX spectra of a Tiotropium Bromide monohydrate before and after the heating at 40° C. at 50% UR for 72 hours.
In fact, this is an equilibrium that is driven by the relative humidity of the environment. […] See the enclosed DRX spectra of a Tiotropium Bromide monohydrate before and after the above described treatment (FIGS. 4 and 4A).

[3] = Stability of the crystalline form on storage, analyzed by DRX (powder); assay type: physicochemical; settings: particularly polyethylene bag as primary packaging; driven by relative humidity
Description: X-Ray Diffraction spectra were registered by means of diffractometer (Rigaku-D-Max) from a start angle [½ 2-theta] of 5.000 to 60.000. The diffraction diagrams were obtained employing a Cu anode (Kα=1,54060 Å and Kα=1,54439 Å). The HPLC method utilized to check the quality of Tiotropium Bromide in the examined samples is the same as described in the European Pharmacopoeia 7.0.

| SMILES | Solid state after mild heating [1] | Solid state after heating (DRX) [2] | Crystalline form in the same storage conditions [3] |
| --- | --- | --- | --- |
| C[N+]1(C)[C@@H]2C[C@@H](OC(=O)C(O)(c3cccs3)c3cccs3)C[C@H]1[C@@H]1O[C@@H]12 [Tiotropium Bromide monohydrate] | easily transformed | changes into the corresponding anhydrous form |  |
| C[N+]1(C)[C@@H]2C[C@@H](OC(=O)C(O)(c3cccs3)c3cccs3)C[C@H]1[C@@H]1O[C@@H]12.[Br-] [Tiotropium Bromide, Tiotropium bromide] |  |  | may absorb or lose water, thus changing the crystalline form |

Reference: patent US9765082B2, “Crystalline form of tiotropium bromide with lactose” (EUTICALS SPA, priority 2014, dated 2017)
